From patent US20110190215A1, “THERAPEUTIC USE OF PEPTIDES” (priority 2008, published 2011) come the findings set out here.

One assay has as its system leptin. Kind of assay: Proteomic microarray (antibody membrane, chemiluminescence): leptin protein expression in TR146 cells. The format is cell-based. Particulars: TR146 buccal mucosal cells, 2.0 μM peptide, 24 hours, vs mock-treated. On the procedure:
(§1) TR146 buccal mucosal cells, obtained from Cancer Research U.K., were propagated in Dulbecco's modified Eagle medium (DMEM) high glucose (Gibco). The culture medium supplemented with 3.7 mg/ml NaHCO3, 10% FCS, 50 units/ml penicillin G, and […] streptomycin sulphate. Cells were passaged when 90% confluence was reached. The medium was discarded, and cells were washed twice with sterile DPBS (without calcium and magnesium, Cellgro) and 0.25% trypsin-EDTA solution (Gibco) was added. The flask was placed at 37° C. for 10 minutes and then detached cells were suspended in growth medium and seeded in new flasks (dishes micro-well plates).
For proteomic microarray analysis, cells at 75-80% confluence in T75 flasks were treated with equimolar (2.0 μM) concentrations of a peptide consisting of the sequence FVAPFPEVFGKEKV (SEQ ID NO 2), […] (SEQ ID NO 3), GPVRGPFPI (SEQ ID NO 4), EPVLGPVRGPFPI (SEQ ID NO 5), VPYPQRDMPIQ (SEQ ID NO 6), […] (SEQ ID NO 7), EPVLGPVR (SEQ ID NO 8) and […] (SEQ ID NO 1). Mock-treated cells received same volume of solvent. After 24 hours the cells were washed twice with DPBS, trypsinized, suspended in 5 ml growth media and centrifuged (800 g for 10 minutes). Cells were resuspended in 5 ml DPBS and centrifuged again.
Antibodies specific to leptin were immobilised on the surface of a membrane. Sample extracts of cell samples each treated with peptides of amino acid sequences SEQ ID NO 1, 2, 3, 4, 5, 6, 7 and 8 were incubated with the membranes. Biotinylated antibodies, specific to leptin-antibody complexes, were then incubated with the membranes. Bound leptin was quantified by measuring chemiluminescence.

Assay [1] in a line: Body weight of mice on high-fat diet (HFD) co-administered peptides. The format is in vivo. Particulars: for body weight gain compared to control fed with HFD alone: peptide co-administered with HFD for 10 months; for body weight: peptide co-administered with high-fat diet (HFD) for 10 months, HFD control 54.7 g, regular diet 29.8 g.
Assay [2] relates to protein-tyrosine phosphatase, receptor-type, F. Kind of assay: Microarray gene expression in peptide-treated TR146 cells: protein-tyrosine phosphatase, receptor-type, F. The format is cell-based. Particulars: TR146 buccal mucosal cells, 2.0 μM peptide, 6 hours, vs mock-treated, Affymetrix Human Genome Focus Array. As for the experimental part:
as §1
(§2) For microarray analysis, cells at 75-80% confluence in T75 flasks were treated with equimolar (2.0 μM) concentrations of a peptide consisting of the sequence RMPLPPRGCPAAAPWS (SEQ ID NO 10) or […] (SEQ ID NO 1). Mock-treated cells received same volume of solvent. […]
(§3) Total RNAs were isolated with an Ambion RNAqueous Kit, and cDNAs were synthesized and purified for Affymetrix GeneChip® Human Genome Focus Array analysis. Raw data were analyzed by the Affymetrix NetAFFX Analysis Center online tools.
(§4) The nature of change of gene expression profile in response to each of the peptides consisting of the sequence RMPLPPRGCPAAAPWS (SEQ ID NO 10) or […] (SEQ ID NO 1) was determined. […]

The next assay deals with Stathmin-1. Kind of assay: Microarray gene expression in peptide-treated TR146 cells: Stathmin-1. The format is cell-based. Conditions: TR146 buccal mucosal cells, 2.0 μM peptide, 6 hours, vs mock-treated, Affymetrix Human Genome Focus Array. As for the experimental part: as §1, §2, §3, §4
In assay [3] the test system is Amyloid Beta (A4) Precursor Protein (APP). Kind of assay: Microarray gene expression in peptide-treated TR146 cells: APP. Particulars: TR146 buccal mucosal cells, 2.0 μM peptide, 6 hours, vs mock-treated, Affymetrix Human Genome Focus Array. The format is cell-based. As for the experimental part: as §1, §2, §3, §4
In assay [4] the test system is beta 2 gamma-aminobutyric acid receptor, theta. Kind of assay: Microarray gene expression in peptide-treated TR146 cells: beta 2 GABA receptor, theta. The class given is cell-based. Particulars: TR146 buccal mucosal cells, 2.0 μM peptide, 6 hours, vs mock-treated, Affymetrix Human Genome Focus Array. As for the experimental part:
as §1
(§5) For microarray analysis, cells at 75-80% confluence in T75 flasks were treated with equimolar (2.0 μM) concentrations of peptide of SEQ ID NO 5. Mock-treated cells received same volume of solvent. After 6 hours the cells were washed twice with DPBS, trypsinized, suspended in 5 ml growth media and centrifuged (800 g for 10 minutes). Cells were resuspended in 5 ml DPBS and centrifuged again. […]
(§6) RNA isolation for Microarray Procedure Total RNAs were isolated with an Ambion RNAqueous Kit, and cDNAs were synthesized and purified for Affymetrix GeneChip® Human Genome Focus Array analysis. Raw data were analyzed by the Affymetrix NetAFFX Analysis Center online tools.
(§7) The nature of change of gene expression profile in response to the peptide was determined. […]

The test system of another assay is rho 2. Kind of assay: Microarray gene expression in peptide-treated TR146 cells: rho 2. The format is cell-based. Particulars: TR146 buccal mucosal cells, 2.0 μM peptide, 6 hours, vs mock-treated, Affymetrix Human Genome Focus Array. As for the experimental part: as §1, §5, §6, §7
The subject of assay [5] is gamma-aminobutyric acid A receptor (GABAAR). Kind of assay: Microarray gene expression in peptide-treated TR146 cells: GABA A receptor. The format is cell-based. Conditions: TR146 buccal mucosal cells, 2.0 μM peptide, 6 hours, vs mock-treated, Affymetrix Human Genome Focus Array. On the procedure:
as §1, §5, §6, §7

For assay [6], the system named is glutamate decarboxylase 2 (pancreatic islets, lung and brain, 65 kDa). Kind of assay: Microarray gene expression in peptide-treated TR146 cells: glutamate decarboxylase 2 (65 kDa). The class given is cell-based. Conditions: TR146 buccal mucosal cells, 2.0 μM peptide, 6 hours, vs mock-treated, Affymetrix Human Genome Focus Array. On the procedure:
as §1, §5, §6, §7

For assay [7], the system named is Renin (angiotensinogenase). The experiment in a line: Microarray gene expression in peptide-treated TR146 cells: renin. The class given is cell-based. Particulars: TR146 buccal mucosal cells, 2.0 μM peptide, 6 hours, vs mock-treated, Affymetrix Human Genome Focus Array. As for the experimental part:
as §1
(§8) For microarray analysis, cells at 75-80% confluence in T75 flasks were treated with equimolar (2.0 μM) concentrations of peptides. Mock-treated cells received same volume of solvent. After 6 hours the cells were washed twice with DPBS, trypsinized, suspended in 5 ml growth media and centrifuged (800 g for 10 minutes). Cells were resuspended in 5 ml DPBS and centrifuged again. Cell pellets were used for RNA isolation.
as §3, §7

Another assay relates to Resistin. The experiment in a line: Microarray gene expression in peptide-treated TR146 cells: resistin. The class given is cell-based. Conditions: TR146 buccal mucosal cells, 2.0 μM peptide, 6 hours, vs mock-treated, Affymetrix Human Genome Focus Array. As for the experimental part: as §1, §8, §3, §7
For a further assay, the system named is Bleomycin hydrolase. The experiment in a line: Microarray gene expression in peptide-treated TR146 cells: bleomycin hydrolase. The format is cell-based. Particulars: TR146 buccal mucosal cells, 2.0 μM peptide, 6 hours, vs mock-treated, Affymetrix Human Genome Focus Array. As for the experimental part: as §1
(§9) For microarray analysis, cells at 75-80% confluence in T75 flasks were treated with equimolar (2.0 μM) concentrations of a peptide consisting of the sequence […] (SEQ ID NO 1). […]
as §3
(§10) The nature of change of gene expression profile in response to the peptide consisting of the sequence […] (SEQ ID NO 1) was determined. […]
as §4

Assay [8] deals with brain glutamate decarboxylase 2. Kind of assay: Microarray gene expression in peptide-treated TR146 cells: brain glutamate decarboxylase 2. The class given is cell-based. Particulars: TR146 buccal mucosal cells, 2.0 μM peptide, 6 hours, vs mock-treated, Affymetrix Human Genome Focus Array. On the procedure:
as §1, §9, §3, §10, §4

Assay [9] concerns glutamate receptor, metabotropic 8. The experiment in a line: Microarray gene expression in peptide-treated TR146 cells: metabotropic glutamate receptor 8. Particulars: TR146 buccal mucosal cells, 2.0 μM peptide, 6 hours, vs mock-treated, Affymetrix Human Genome Focus Array. The format is cell-based. As for the experimental part: as §1, §9, §3, §10, §4
In assay [10] the test system is Apolipoprotein E (APOE) and receptors. The experiment in a line: Microarray gene expression in peptide-treated TR146 cells: APOE and receptors. The class given is cell-based. Particulars: TR146 buccal mucosal cells, 2.0 μM peptide, 6 hours, vs mock-treated, Affymetrix Human Genome Focus Array. As for the experimental part:
as §1, §9, §3, §10, §4

Assay [11] concerns TR146 buccal mucosal cells. Kind of assay: Microarray gene expression profile of peptide-treated TR146 cells (number of genes altered). The format is cell-based, human. Particulars: 2.0 μM peptide, 6 hours. On the procedure:
as §1
For microarray analysis, cells at 75-80% confluence in T75 flasks were treated with equimolar (2.0 μM) concentrations of a peptide consisting of the sequence […] (SEQ ID NO 1). Mock-treated cells received same volume of solvent. After 6 hours the cells were washed twice with DPBS, trypsinized, suspended in 5 ml growth media and centrifuged (800 g for 10 minutes). Cells were resuspended in 5 ml DPBS and centrifuged again. Cell pellets were used for RNA isolation.
as §3
The nature of change of gene expression profile in response to the peptide consisting of the sequence […] (SEQ ID NO 1) was determined. Four result files were generated: 1. Molecular networks; 2. Biological functions and diseases; 3. Metabolic-, signalling-, and other molecular pathways; 4. Network node molecule lists. Fischer's exact test was used to calculate a p-value determining the probability that each biological function and/or disease assigned to that data set is due to chance alone.

The test system of assay [12] is glutamate receptor, ionotropic, N-methyl D-aspartate 2A. Kind of assay: Microarray gene expression in peptide-treated TR146 cells: NMDA 2A glutamate receptor. The format is cell-based. Particulars: TR146 buccal mucosal cells, 2.0 μM peptide, 6 hours, vs mock-treated, Affymetrix Human Genome Focus Array. On the procedure: as §1, §9, §3, §10, §4
The test system of assay [13] is glutamate receptor, metabotropic 7. Kind of assay: Microarray gene expression in peptide-treated TR146 cells: metabotropic glutamate receptor 7. The class given is cell-based. Conditions: TR146 buccal mucosal cells, 2.0 μM peptide, 6 hours, vs mock-treated, Affymetrix Human Genome Focus Array. On the procedure: as §1, §9, §3, §10, §4

Entries after “also recorded” stand apart in the source; their conditions may differ. Where no end group is shown, it is not given here.

In the case of “SLSQSKVLPVPQKAVPYPQRDMPIQ (listed as Ovis sp.) [SEQ ID NO 7, peptide homologous with positions 164-188 of casein beta]”, the “protein expression of leptin” value in the assay on leptin was “upregulated”.
On the same count and under the same terms, the result for “EPVLGPVR (listed as Ovis sp.) [SEQ ID NO 8, peptide homologous with positions 195-202 of casein beta]” reads “upregulated”.
Consider “RMPLPPRGCPAAAPWS (listed as Ovis sp.) [SEQ ID NO 10]”, for which, in [1], the “body weight gain compared to control fed with HFD alone” value is given as “lower” and the body weight is reported as 50.1 g. In addition, the “gene expression of protein-tyrosine phosphatase, receptor-type, F” value in assay [2] is listed as “downregulated”. The “gene expression of Stathmin-1” value in the assay with Stathmin-1 is recorded as “upregulated”. Besides, in [3], the “gene expression of Amyloid Beta (A4) Precursor Protein (APP)” value is “downregulated”.
Regarding “RGPFPIIV (listed as Ovis sp.) [SEQ ID NO 9, peptide said to be homologous with positions 202-209 of casein alpha S-1]”, in [1], the “body weight gain compared to control fed with HFD alone” value is “lower” and the body weight amounted to 51.1 g.
On to “EPVLGPVRGPFPI (listed as Ovis sp.) [SEQ ID NO 5, peptide homologous with positions 195 to 207 of casein beta]”, for which, in [4], the “gene expression of beta 2 gamma-aminobutyric acid receptor, theta” value is given as “downregulated”. The “gene expression of rho 2” value in the assay with rho 2 is “downregulated”. In addition, the “gene expression of gamma-aminobutyric acid A receptor (GABAAR)” value in [5] is recorded as “downregulated”. For the same sequence, the “protein expression of leptin” value in the assay on leptin is given as “upregulated”. Further, the “gene expression of glutamate decarboxylase 2 (pancreatic islets, lung and brain, 65 kDa)” value in assay [6] is given as “downregulated”.
“SDIPNPIGSENSEKTTMPLW (listed as Ovis sp.) [SEQ ID NO 3, peptide homologous with positions 195-214 of casein alpha S-1]”: the “protein expression of leptin” value in the assay with leptin is “upregulated”.
Take “FVAPFPEVFGKEKV (listed as Ovis sp.) [SEQ ID NO 2, peptide homologous with positions 39 to 52 of casein alpha S-1]”: the “gene expression of renin (angiotensinogenase)” value in assay [7] is recorded as “down-regulated”. Also, the “protein expression of leptin” value in the assay with leptin is “upregulated”. Moreover, in assay [1], the “body weight gain compared to control fed with HFD alone” value is “lower” and the body weight was 52.1 g. In addition, in the assay with Resistin, the “gene expression of resistin” value is “down-regulated”.
“VPYPQRDMPIQ (listed as Ovis sp.) [SEQ ID NO 6, peptide homologous with positions 178-188 of casein beta]”: the “protein expression of leptin” value in the assay with leptin was “upregulated”.
The same measure, in the same setting: as for “GPVRGPFPI (listed as Ovis sp.) [SEQ ID NO 4, peptide homologous with positions 199-207 of casein beta]”, the entry is “upregulated”.
Turning to RPKHPIKHQGLPQEVLNENLLRF [SEQ ID NO 1], the “gene expression of bleomycin hydrolase” value in the assay on Bleomycin hydrolase was “Upregulation; also recorded: upregulated”. Further, the “gene expression of brain glutamate decarboxylase 2” value in assay [8] was “Downregulation; also recorded: down-regulated”. In assay [9], the “gene expression of glutamate receptor, metabotropic 8” value was “Downregulation; also recorded: down-regulated”. For the same sequence, the “protein expression of leptin” value in the assay with leptin is “upregulated”. In addition, the “gene expression of Apolipoprotein E (APOE) and receptors” value in [10] is recorded as “Downregulation; also recorded: down-regulated”. Further, in assay [11], the “number of genes down-regulated” value is 296 genes and the “number of genes up-regulated” value came out at 101 genes. Besides, in [11] (total altered), the “number of genes with altered expression” value is reported as about 400 genes. In assay [12], the “gene expression of glutamate receptor, ionotropic, N-methyl D-aspartate 2A” value is listed as “Downregulation; also recorded: down-regulated”. Moreover, the “gene expression of glutamate receptor, metabotropic 7” value in assay [13] is recorded as “Downregulation; also recorded: down-regulated”.
